Here are results for one compound from patent US7537803B2, “Polymer coating/encapsulation of nanoparticles using a supercritical antisolvent process” (New Jersey Institute of Technology, priority 2003, dated 2009).

The nature of this data set: Dissolution of hydrocortisone in DCM of the coating suspension. The format is physicochemical. The note with it: suspension in PLGA/dichloromethane for SAS coating. The source says: An exemplary processing protocol according to the present disclosure is as follows. The precipitation chamber is first charged with SC CO2. After the predetermined operating conditions (temperature and pressure) are reached, a steady flow of CO2 is established by adjusting the metering valve and the metering pump. The flow rate of CO2 was usually less than 3.0 standard liters per minute (SLPM). PLGA and hydrocortisone (HC) are then weighed and mixed into dichloromethane (DCM) to produce a suspension with the desired polymer concentration and PLGA to HC ratio. The suspension-so-produced is then injected at a flow rate of 0.8 ml/min into the high pressure chamber through the capillary nozzle by using an HPLC pump (Beckman, 110B) for about 10 minutes. After spraying, fresh CO2 is supplied continuously to purge the chamber with about 1 equivalent volume of CO2 in order to remove any remaining dichloromethane. After purging, the precipitation chamber is slowly depressurized and the coated drug particles collected for characterization.
Initially, reference is made to FIG. 18 wherein SEM images of the untreated hydrocortisone particles employed in the experimental studies are shown. Hydrocortisone is seen to be in crystal form with defined facets and sharp edges. […] The coated particles have a different shape (morphology) and no clear sharp edges when compared with the uncoated drug particles. […]

In the case of `C[C@]12CCC(=O)C=C1CC[C@@H]1[C@@H]2[C@@H](O)C[C@@]2(C)[C@H]1CC[C@]2(O)C(=O)CO` [hydrocortisone, Hydrocortisone], the “hydrocortisone dissolved in DCM, share of the total” value is “about 17%”.
